Measurements published in ChEMBL document CHEMBL4818987, “Recent advances of podophyllotoxin/epipodophyllotoxin hybrids in anticancer activity, mode of action, and structure-activity relationship: An update (2010-2020)” (Eur J Med Chem, 2020).

Tests used:
Type in all cases: functional, cell-based
HeLa = test: Antiproliferative activity against human HeLa cells incubated for 48 hrs by MTT assay
A549 = test: Antiproliferative activity against human A549 cells incubated for 48 hrs by MTT assay; settings: A549, 48 h
HepG2 [1] = test: Antiproliferative activity against human HepG2 cells incubated for 48 hrs by MTT assay; settings: HepG2, 48 h
SW480 = test: Antiproliferative activity against human SW480 cells incubated for 48 hrs by MTT assay; settings: SW480, 48 h
HL-60 = test: Antiproliferative activity against human HL-60 cells incubated for 48 hrs by MTT assay; settings: HL-60, 48 h
MCF7 = test: Antiproliferative activity against human MCF7 cells incubated for 48 hrs by MTT assay; settings: MCF7, 48 h
SMMC-7721 = test: Antiproliferative activity against human SMMC-7721 cells incubated for 48 hrs by MTT assay; settings: SMMC-7721, 48 h
MKN-45 = test: Antiproliferative activity against human MKN-45 cells incubated for 48 to 72 hrs by MTT assay
NCI-H1993 = test: Antiproliferative activity against human NCI-H1993 cells incubated for 48 to 72 hrs by MTT assay
B16 = test: Antiproliferative activity against […] cells incubated for 48 to 72 hrs by MTT assay; settings: Mus musculus
HepG2 [2] = test: Antiproliferative activity against human HepG2 cells incubated for 48 to 72 hrs by MTT assay

Row | Compound | IC50 (HeLa) | IC50 (A549) | IC50 (HepG2 [1]) | IC50 (SW480) | IC50 (HL-60) | IC50 (MCF7) | IC50 (SMMC-7721) | IC50 (MKN-45) | IC50 (NCI-H1993) | IC50 (B16) | IC50 (HepG2 [2])
1 | COc1cc([C@@H]2c3cc4c(cc3C[C@H]3COC(=O)[C@@H]32)OCO4)cc(OC)c1OC(=O)NCC(=O)N1CCN(c2ccc([N+](=O)[O-])cc2)CC1 | 183 nM | 183 nM | 210 nM |  |  |  |  |  |  |  | 
2 | COc1cc([C@@H]2c3cc4c(cc3[C@H](OC(=O)CCCCCNC(=O)CCCC[C@@H]3SC[C@@H]5NC(=O)N[C@@H]53)[C@H]3COC(=O)[C@H]23)OCO4)cc(OC)c1OC |  | > 130 nM |  | > 130 nM | > 130 nM | > 130 nM | > 130 nM |  |  |  | 
3 | COc1cc(C(=O)/C=C/c2ccncc2)ccc1OCc1cn([C@H]2c3cc4c(cc3[C@@H](c3cc(OC)c(OC)c(OC)c3)[C@H]3C(=O)OC[C@@H]32)OCO4)nn1 |  |  |  |  |  |  |  | 130 nM | 130 nM | 130 nM | 130 nM
4 | COc1cc([C@@H]2c3cc4c(cc3[C@@H](OC(=O)CCCCCNC(=O)CCCC[C@@H]3SC[C@@H]5NC(=O)N[C@@H]53)[C@H]3COC(=O)[C@H]23)OCO4)cc(OC)c1O |  | > 130 nM |  | > 130 nM | > 130 nM | > 130 nM | > 130 nM |  |  |  | 
5 | COc1cc(C(=O)/C=C/c2ccc(N(C)C)cc2)ccc1OCc1cn([C@H]2c3cc4c(cc3[C@@H](c3cc(OC)c(OC)c(OC)c3)[C@H]3C(=O)OC[C@@H]32)OCO4)nn1 |  |  |  |  |  |  |  | 130 nM | 130 nM | 130 nM | 130 nM
6 | COc1cc(C(=O)/C=C/c2ccc(C(F)(F)F)cc2)ccc1OCc1cn([C@H]2c3cc4c(cc3[C@@H](c3cc(OC)c(OC)c(OC)c3)[C@H]3C(=O)OC[C@@H]32)OCO4)nn1 |  |  |  |  |  |  |  | 130 nM | 130 nM | 130 nM | 130 nM
7 | COc1cc([C@@H]2c3cc4c(cc3[C@@H](n3cc(COC(=O)CCCC[C@@H]5SC[C@@H]6NC(=O)N[C@@H]65)nn3)[C@H]3COC(=O)[C@H]23)OCO4)cc(OC)c1O |  | > 130 nM |  | > 130 nM | > 130 nM | > 130 nM | > 130 nM |  |  |  | 
8 | COc1cc([C@@H]2c3cc4c(cc3[C@@H](n3cc(COC(=O)CCCCCNC(=O)CCCC[C@@H]5SC[C@@H]6NC(=O)N[C@@H]65)nn3)[C@H]3COC(=O)[C@H]23)OCO4)cc(OC)c1O |  | > 130 nM |  | > 130 nM | > 130 nM | > 130 nM | > 130 nM |  |  |  | 
9 | COc1ccccc1/C=C/C(=O)c1ccc(OCc2cn([C@H]3c4cc5c(cc4[C@@H](c4cc(OC)c(OC)c(OC)c4)[C@H]4C(=O)OC[C@@H]43)OCO5)nn2)c(OC)c1 |  |  |  |  |  |  |  | 130 nM | 130 nM | 130 nM | 130 nM
10 | COc1cc([C@@H]2c3cc4c(cc3[C@@H](OC(=O)CCCCCNC(=O)CCCC[C@@H]3SC[C@@H]5NC(=O)N[C@@H]53)[C@H]3COC(=O)[C@H]23)OCO4)cc(OC)c1OC |  | > 130 nM |  | > 130 nM | > 130 nM | > 130 nM | > 130 nM |  |  |  | 
11 | COc1cc([C@@H]2c3cc4c(cc3[C@@H](NC(=O)CCCC[C@@H]3SC[C@@H]5NC(=O)N[C@@H]53)[C@H]3COC(=O)[C@H]23)OCO4)cc(OC)c1OC |  | > 130 nM |  | > 130 nM | > 130 nM | > 130 nM | > 130 nM |  |  |  | 
12 | COc1cc(C(C)=O)ccc1OCc1cn([C@H]2c3cc4c(cc3[C@@H](c3cc(OC)c(OC)c(OC)c3)[C@H]3C(=O)OC[C@@H]32)OCO4)nn1 |  |  |  |  |  |  |  | 130 nM | 130 nM | 130 nM | 130 nM
13 | COc1cc([C@@H]2c3cc4c(cc3[C@H](OC(=O)CCCC[C@@H]3SC[C@@H]5NC(=O)N[C@@H]53)[C@H]3COC(=O)[C@H]23)OCO4)cc(OC)c1OC |  | > 130 nM |  | > 130 nM | > 130 nM | > 130 nM | > 130 nM |  |  |  | 
14 | CCCC(=O)O[C@@H]1[C@@H](OC(=O)CCC)[C@@H](O[C@@H]2c3cc4c(cc3[C@@H](c3cc(OC)c(O)c(OC)c3)[C@H]3C(=O)OC[C@@H]32)OCO4)OC[C@H]1OC(=O)CCC |  | > 2900 nM |  | > 2900 nM | > 2900 nM | > 2900 nM | > 2900 nM |  |  |  | 
15 | COc1ccc(/C=C/C(=O)c2ccc(OCc3cn([C@H]4c5cc6c(cc5[C@@H](c5cc(OC)c(OC)c(OC)c5)[C@H]5C(=O)OC[C@@H]54)OCO6)nn3)c(OC)c2)cc1OC |  |  |  |  |  |  |  | 130 nM | 130 nM | 130 nM | 130 nM
16 | COc1cc(C(=O)/C=C/c2ccsc2)ccc1OCc1cn([C@H]2c3cc4c(cc3[C@@H](c3cc(OC)c(OC)c(OC)c3)[C@H]3C(=O)OC[C@@H]32)OCO4)nn1 |  |  |  |  |  |  |  | 130 nM | 130 nM | 130 nM | 130 nM

Row | Compound | IC50 (HeLa) | IC50 (A549) | IC50 (HepG2 [1]) | IC50 (SW480) | IC50 (HL-60) | IC50 (MCF7) | IC50 (SMMC-7721) | IC50 (MKN-45) | IC50 (NCI-H1993) | IC50 (B16) | IC50 (HepG2 [2])
17 | COc1cc(C(=O)/C=C/c2cc(OC)c(OC)c(OC)c2)ccc1OCc1cn([C@H]2c3cc4c(cc3[C@@H](c3cc(OC)c(OC)c(OC)c3)[C@H]3C(=O)OC[C@@H]32)OCO4)nn1 |  |  |  |  |  |  |  | 130 nM | 130 nM | 130 nM | 130 nM
18 | COc1ccc(OC(C)(C)c2cn([C@H]3c4cc5c(cc4[C@@H](c4cc(OC)c(OC)c(OC)c4)[C@H]4C(=O)OC[C@@H]43)OCO5)nn2)cc1 |  |  |  |  |  |  |  | 130 nM | 130 nM | 130 nM | 130 nM
19 | COc1cc([C@@H]2c3cc4c(cc3[C@@H](NC(=O)CCCCCNC(=O)CCCC[C@@H]3SC[C@@H]5NC(=O)N[C@@H]53)[C@H]3COC(=O)[C@H]23)OCO4)cc(OC)c1O |  | > 130 nM |  | > 130 nM | > 130 nM | > 130 nM | > 130 nM |  |  |  | 
20 | COc1cc([C@@H]2c3cc4c(cc3[C@H](n3cc(CNC(=O)c5ccc(Cl)cc5)nn3)[C@H]3COC(=O)[C@H]23)OCO4)cc(OC)c1OC |  |  |  |  |  |  |  | 130 nM | 130 nM | 130 nM | 130 nM
21 | COc1cc([C@@H]2c3cc4c(cc3[C@@H](OC(=O)CCCC[C@@H]3SC[C@@H]5NC(=O)N[C@@H]53)[C@H]3COC(=O)[C@H]23)OCO4)cc(OC)c1OC |  | > 130 nM |  | > 130 nM | > 130 nM | > 130 nM | > 130 nM |  |  |  | 
22 | COc1cc([C@@H]2c3cc4c(cc3[C@H](n3cc(CNC(=O)c5ccccc5Cl)nn3)[C@H]3COC(=O)[C@H]23)OCO4)cc(OC)c1OC |  |  |  |  |  |  |  | 130 nM | 130 nM | 130 nM | 130 nM
23 | COc1cc([C@@H]2c3cc4c(cc3[C@H](n3cc(C(C)(C)Oc5ccc([N+](=O)[O-])cc5)nn3)[C@H]3COC(=O)[C@H]23)OCO4)cc(OC)c1OC |  |  |  |  |  |  |  | 130 nM | 130 nM | 130 nM | 130 nM
24 | COc1cc(OC)c(OC)cc1/C=C/C(=O)c1ccc(OCc2cn([C@H]3c4cc5c(cc4[C@@H](c4cc(OC)c(OC)c(OC)c4)[C@H]4C(=O)OC[C@@H]43)OCO5)nn2)c(OC)c1 |  |  |  |  |  |  |  | 130 nM | 130 nM | 130 nM | 130 nM
25 | COc1cc(C(=O)/C=C/c2ccc(F)cc2)ccc1OCc1cn([C@H]2c3cc4c(cc3[C@@H](c3cc(OC)c(OC)c(OC)c3)[C@H]3C(=O)OC[C@@H]32)OCO4)nn1 |  |  |  |  |  |  |  | 130 nM | 130 nM | 130 nM | 130 nM
26 | COc1cc([C@@H]2c3cc4c(cc3[C@@H](n3cc(COC(=O)CCCCCNC(=O)CCCC[C@@H]5SC[C@@H]6NC(=O)N[C@@H]65)nn3)[C@H]3COC(=O)[C@H]23)OCO4)cc(OC)c1OC |  | > 130 nM |  | > 130 nM | > 130 nM | > 130 nM | > 130 nM |  |  |  | 
27 | CCC[C@@H]1O[C@@H](O[C@H]2c3cc4c(cc3[C@@H](c3cc(OC)c(OC)c(OC)c3)[C@H]3C(=O)OC[C@@H]32)OCO4)CC[C@H]1O | 41.6 nM | 41.6 nM | 41.6 nM |  |  | 41.6 nM |  |  |  |  | 
28 | COc1cc(C(=O)/C=C/c2cccs2)ccc1OCc1cn([C@H]2c3cc4c(cc3[C@@H](c3cc(OC)c(OC)c(OC)c3)[C@H]3C(=O)OC[C@@H]32)OCO4)nn1 |  |  |  |  |  |  |  | 130 nM | 130 nM | 130 nM | 130 nM
29 | COc1cc([C@@H]2c3cc4c(cc3[C@@H](O[C@H]3O[C@H](COC(C)=O)[C@@H](OC(C)=O)[C@H](OC(C)=O)[C@H]3OC(C)=O)[C@H]3COC(=O)[C@H]23)OCO4)cc(OC)c1O |  | > 140 nM |  | > 140 nM | > 140 nM | > 140 nM | > 140 nM |  |  |  | 
30 | COc1cc([C@@H]2c3cc4c(cc3[C@@H](n3cc(COC(=O)CCCC[C@@H]5SC[C@@H]6NC(=O)N[C@@H]65)nn3)[C@H]3COC(=O)[C@H]23)OCO4)cc(OC)c1OC |  | > 130 nM |  | > 130 nM | > 130 nM | > 130 nM | > 130 nM |  |  |  | 
31 | COc1cc([C@@H]2c3cc4c(cc3[C@@H](NC(=O)CCCCCNC(=O)CCCC[C@@H]3SC[C@@H]5NC(=O)N[C@@H]53)[C@H]3COC(=O)[C@H]23)OCO4)cc(OC)c1OC |  | > 130 nM |  | > 130 nM | > 130 nM | > 130 nM | > 130 nM |  |  |  | 
32 | COc1cc([C@@H]2c3cc4c(cc3[C@@H](NC(=O)CCCC[C@@H]3SC[C@@H]5NC(=O)N[C@@H]53)[C@H]3COC(=O)[C@H]23)OCO4)cc(OC)c1O |  | > 130 nM |  | > 130 nM | > 130 nM | > 130 nM | > 130 nM |  |  |  | 
